± gives the standard deviation of the averaged measurements.
Legend:
[1] = compound: CCn1c(C(=O)N(C2CC2)C2CC2)cc2c3c(ncn3C)c(Nc3cc(C)n(C)n3)nc21; assay: surviving fraction relative to DMSO-only wells; higher = less growth inhibition; conditions: exposure time: 5 days
In short: (§1)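 Tumour cell lines in log phase were plated in 384-well plates at 250–500 cells per well, then, after 24 hours, exposed continuously for five days to inhibitors at 0.5, 1, 5, 10, 50, 100, 500 and 1000 nM. Viability came from CellTiter-Glo luminescence, and surviving fraction is that signal normalised to the median of DMSO-only wells. Plates were read after 10 minutes at room temperature, and each line, screened three times, was kept only when replicate Pearson r was >0.7 and median Z' was >0.3.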

SOTRASTAURIN/AEB071 = compound: CN1CCN(c2nc(C3=C(c4c[nH]c5ccccc45)C(=O)NC3=O)c3ccccc3n2)CC1 [SOTRASTAURIN/AEB071]; assay: as above; conditions: exposure time: 5 days
In short: as §1

Row | Test System | surviving fraction ([1]; 0.5 nM) | surviving fraction ([1]; 1 nM) | surviving fraction ([1]; 5 nM) | surviving fraction ([1]; 10 nM) | surviving fraction ([1]; 50 nM) | surviving fraction ([1]; 100 nM) | surviving fraction ([1]; 500 nM) | surviving fraction ([1]; 1000 nM) | surviving fraction (SOTRASTAURIN/AEB071; 0.5 nM) | surviving fraction (SOTRASTAURIN/AEB071; 1 nM) | surviving fraction (SOTRASTAURIN/AEB071; 5 nM) | surviving fraction (SOTRASTAURIN/AEB071; 10 nM) | surviving fraction (SOTRASTAURIN/AEB071; 50 nM) | surviving fraction (SOTRASTAURIN/AEB071; 100 nM) | surviving fraction (SOTRASTAURIN/AEB071; 500 nM) | surviving fraction (SOTRASTAURIN/AEB071; 1000 nM)
1 | H23 LUNG | 0.966 ± 0.048 | 0.982 ± 0.013 | 0.972 ± 0.025 | 0.981 ± 0.03 | 0.99 ± 0.015 | 0.981 ± 0.025 | 0.894 ± 0.021 | 0.903 ± 0.054 | 1.03 ± 0.015 | 1.09 ± 0.046 | 1.07 ± 0.045 | 1.03 ± 0.016 | 1.1 ± 0.076 | 1.11 ± 0.092 | 1.14 ± 0.037 | 1.116 ± 0.011
2 | HCC78 LUNG | 0.942 ± 0.17 | 0.672 ± 0.3 | 0.745 ± 0.26 | 0.888 ± 0.17 | 0.774 ± 0.21 | 0.914 ± 0.089 | 0.707 ± 0.16 | 0.834 ± 0.2 | 1.08 ± 0.35 | 0.934 ± 0.14 | 0.96 ± 0.073 | 1 ± 0.12 | 1.16 ± 0.18 | 1.48 ± 0.17 | 1.11 ± 0.059 | 1.05 ± 0.058
3 | HCC202 BREAST | 1.32 ± 0.046 | 1.04 ± 0.17 | 1.16 ± 0.22 | 1.38 ± 0.23 | 1.4 ± 0.19 | 1.23 ± 0.057 | 1.35 ± 0.36 | 1.08 ± 0.062 | 1.17 ± 0.19 | 1.354 ± 0.0028 | 1.39 ± 0.86 | 1.05 ± 0.41 | 0.774 ± 0.33 | 0.88 ± 0.36 | 1.19 ± 0.05 | 1.123 ± 0.005
4 | HCC1395 BREAST | 1.15 ± 0.067 | 1.06 ± 0.14 | 1.25 ± 0.057 | 1.16 ± 0.1 | 1.216 ± 0.0056 | 1.12 ± 0.21 | 0.973 ± 0.13 | 1.1 ± 0.16 | 0.996 ± 0.018 | 1.09 ± 0.058 | 1.16 ± 0.12 | 1.12 ± 0.15 | 1.19 ± 0.13 | 1.1 ± 0.1 | 0.885 ± 0.14 | 0.969 ± 0.075
5 | HCC1806 BREAST | 0.959 ± 0.2 | 0.993 ± 0.095 | 1.13 ± 0.043 | 1.04 ± 0.089 | 1.02 ± 0.11 | 1.21 ± 0.1 | 0.982 ± 0.078 | 0.885 ± 0.12 | 0.958 ± 0.19 | 0.944 ± 0.041 | 1.17 ± 0.078 | 1.08 ± 0.017 | 0.887 ± 0.026 | 1.01 ± 0.096 | 0.9673 ± 0.0067 | 0.908 ± 0.066
6 | HCC1954 BREAST | 0.868 ± 0.014 | 0.837 ± 0.18 | 0.999 ± 0.22 | 0.932 ± 0.18 | 0.92 ± 0.028 | 0.896 ± 0.013 | 0.764 ± 0.065 | 0.921 ± 0.085 | 1.1 ± 0.09 | 1.1 ± 0.08 | 1.2 ± 0.11 | 1.19 ± 0.27 | 0.63 ± 0.2 | 0.682 ± 0.12 | 0.502 ± 0.072 | 0.674 ± 0.16
7 | HCT15 LARGE INTESTINE | 0.987 ± 0.032 | 0.972 ± 0.011 | 0.944 ± 0.021 | 0.986 ± 0.011 | 1.05 ± 0.043 | 1.05 ± 0.031 | 1.06 ± 0.018 | 1.06 ± 0.03 | 1.03 ± 0.12 | 1.07 ± 0.024 | 1.05 ± 0.053 | 1.02 ± 0.081 | 1.05 ± 0.054 | 1.05 ± 0.061 | 1.02 ± 0.079 | 1.05 ± 0.069
8 | HELA CERVIX | 1 ± 0.096 | 0.998 ± 0.036 | 0.939 ± 0.059 | 0.953 ± 0.044 | 1.09 ± 0.033 | 1.04 ± 0.026 | 1.05 ± 0.037 | 1.1 ± 0.09 | 1.03 ± 0.029 | 1.05 ± 0.052 | 1.05 ± 0.072 | 0.974 ± 0.043 | 1.14 ± 0.15 | 1.15 ± 0.063 | 1.11 ± 0.057 | 1.12 ± 0.092
9 | HOS BONE | 1 ± 0.0066 | 0.9927 ± 0.0081 | 0.994 ± 0.023 | 0.997 ± 0.0046 | 1.047 ± 0.0078 | 1.037 ± 0.0023 | 1.02 ± 0.013 | 0.96 ± 0.018 | 1.021 ± 0.0061 | 1.01 ± 0.014 | 1.04 ± 0.023 | 1.014 ± 0.008 | 1.05 ± 0.014 | 1.03 ± 0.013 | 1.02 ± 0.018 | 0.974 ± 0.016
10 | HOSMNG BONE | 1 ± 0.071 | 0.979 ± 0.11 | 0.992 ± 0.068 | 0.985 ± 0.07 | 1.04 ± 0.061 | 1.08 ± 0.08 | 1.01 ± 0.1 | 1.09 ± 0.038 | 0.939 ± 0.079 | 0.932 ± 0.025 | 0.994 ± 0.035 | 0.947 ± 0.047 | 1.05 ± 0.12 | 0.963 ± 0.028 | 1.11 ± 0.061 | 1.01 ± 0.05
11 | HSSYII SYNOVIAL | 0.918 ± 0.058 | 0.908 ± 0.022 | 0.905 ± 0.061 | 0.901 ± 0.022 | 0.937 ± 0.025 | 0.926 ± 0.027 | 0.926 ± 0.049 | 0.887 ± 0.039 | 0.909 ± 0.02 | 0.985 ± 0.084 | 0.984 ± 0.022 | 0.98 ± 0.02 | 0.87 ± 0.069 | 0.83 ± 0.065 | 0.833 ± 0.015 | 0.839 ± 0.039
12 | HT1080 SOFT TISSUE | 1.01 ± 0.04 | 0.993 ± 0.015 | 1.004 ± 0.0098 | 1.039 ± 0.002 | 0.965 ± 0.023 | 1.01 ± 0.036 | 0.997 ± 0.036 | 0.969 ± 0.011 | 1.07 ± 0.028 | 1.08 ± 0.024 | 1.053 ± 0.0085 | 1.05 ± 0.021 | 1.03 ± 0.025 | 1.04 ± 0.016 | 1.07 ± 0.019 | 1.16 ± 0.063
13 | HU09 BONE | 1.06 ± 0.09 | 1.03 ± 0.11 | 1.09 ± 0.081 | 1.18 ± 0.22 | 1.25 ± 0.32 | 1 ± 0.072 | 0.915 ± 0.091 | 0.932 ± 0.064 | 0.957 ± 0.092 | 1.03 ± 0.088 | 1.08 ± 0.075 | 1.1 ± 0.075 | 0.898 ± 0.085 | 0.929 ± 0.11 | 0.851 ± 0.026 | 0.925 ± 0.11
14 | HUO3N1 BONE | 0.9853 ± 0.0075 | 0.999 ± 0.029 | 1.05 ± 0.057 | 1.03 ± 0.048 | 1.07 ± 0.021 | 1 ± 0.048 | 0.967 ± 0.038 | 0.868 ± 0.013 | 1 ± 0.051 | 1.04 ± 0.075 | 1.08 ± 0.025 | 1.08 ± 0.054 | 1.001 ± 0.01 | 1.02 ± 0.025 | 0.897 ± 0.024 | 0.883 ± 0.017
15 | JIMT1 BREAST | 0.975 ± 0.024 | 0.969 ± 0.034 | 0.973 ± 0.026 | 1.01 ± 0.013 | 1.07 ± 0.046 | 1.06 ± 0.02 | 1.06 ± 0.014 | 1.06 ± 0.0097 | 0.958 ± 0.039 | 0.941 ± 0.017 | 0.98 ± 0.033 | 0.96 ± 0.02 | 0.975 ± 0.038 | 0.956 ± 0.047 | 0.987 ± 0.037 | 0.992 ± 0.022
16 | JURKAT HAEMATOPOIETIC AND LYMPHOID TISSUE | 1.092 ± 0.0091 | 1.08 ± 0.017 | 1.09 ± 0.021 | 1.05 ± 0.037 | 1.05 ± 0.036 | 1.04 ± 0.034 | 1.08 ± 0.018 | 1.09 ± 0.014 | 1.08 ± 0.047 | 1.13 ± 0.017 | 1.09 ± 0.042 | 1.08 ± 0.041 | 1.06 ± 0.012 | 1.03 ± 0.022 | 1.06 ± 0.044 | 1.05 ± 0.032
17 | KPD BONE | 1.01 ± 0.074 | 0.951 ± 0.089 | 1.01 ± 0.043 | 0.991 ± 0.074 | 1.04 ± 0.047 | 1.01 ± 0.14 | 0.945 ± 0.017 | 0.99 ± 0.056 | 0.967 ± 0.054 | 0.974 ± 0.034 | 1.08 ± 0.062 | 1.04 ± 0.032 | 1.01 ± 0.031 | 1.08 ± 0.019 | 1.04 ± 0.043 | 1.07 ± 0.059
18 | LM7 BONE | 0.967 ± 0.042 | 0.976 ± 0.03 | 1.07 ± 0.041 | 1.03 ± 0.097 | 1.04 ± 0.047 | 1.06 ± 0.073 | 0.994 ± 0.12 | 0.896 ± 0.03 | 1.03 ± 0.077 | 0.945 ± 0.024 | 1.01 ± 0.075 | 1.05 ± 0.062 | 0.889 ± 0.051 | 0.907 ± 0.049 | 0.803 ± 0.035 | 0.811 ± 0.12
19 | LNCAP PROSTATE | 0.985 ± 0.1 | 0.852 ± 0.067 | 0.908 ± 0.19 | 0.861 ± 0.12 | 0.969 ± 0.032 | 0.915 ± 0.013 | 0.802 ± 0.03 | 0.806 ± 0.067 | 1.12 ± 0.11 | 1.05 ± 0.11 | 1.06 ± 0.052 | 0.998 ± 0.087 | 1.22 ± 0.069 | 1.16 ± 0.1 | 1.23 ± 0.025 | 1.18 ± 0.039
20 | MCF7 BREAST | 0.815 ± 0.049 | 0.841 ± 0.028 | 0.844 ± 0.025 | 0.828 ± 0.03 | 0.913 ± 0.048 | 0.862 ± 0.026 | 0.889 ± 0.065 | 0.854 ± 0.039 | 0.925 ± 0.066 | 0.917 ± 0.043 | 0.945 ± 0.052 | 0.935 ± 0.036 | 0.941 ± 0.036 | 0.941 ± 0.068 | 0.941 ± 0.053 | 0.966 ± 0.017
